The values that follow are results of earlier work, collected in patent US11013731B2, “Intratumoral administration of sirolimus for treatment of prostate cancer” (SANTEN PHARMACEUTICAL CO., LTD., priority 2017, dated 2021).

For this series the following is noted: according to Medscape.

Structures are written as SMILES.

On to `CO[C@H]1C[C@@H]2CC[C@@H](C)[C@@](O)(O2)C(=O)C(=O)N2CCCC[C@H]2C(=O)O[C@H]([C@H](C)C[C@@H]2CC[C@@H](O)[C@H](OC)C2)CC(=O)[C@H](C)/C=C(\C)[C@@H](O)[C@@H](OC)C(=O)[C@H](C)C[C@H](C)/C=C/C=C/C=C/1C` [sirolimus], for which the oral bioavailability was 14%.
